Reference: paper PMC9948168, “Vanillin-Based Indolin-2-one Derivative Bearing a Pyridyl Moiety as a Promising Anti-Breast Cancer Agent via Anti-Estrogenic Activity” (ACS Omega, 2023)

Experiments:
Assay in all cases: NCI-60 one-dose screening
Type in all cases: cell-based
[1] = tested on: A498; details: Homo sapiens, A498, Renal Cancer, read-out: GI (%)
Experimental: (§1) Compounds 5a–c and 6a–o were tested using standard NCI protocols for in vitro activity at the National Cancer Institute (NCI, Bethesda, Maryland, USA), wherein compounds were tested using one single concentration of 10 μM against 60 cell lines of nine different cancer types. […] Excellent activity was observed against a single NSCLC cell line, EKVX, for compounds 5a–c (GIs = 77–86%, Table 1) with no observed activity for indoles with substituted vanillin 6a–o.
(§2) Anticancer activity was tested against 60 cancer cell lines at the NCI, Bethesda, USA. The screening process was done with a single dosage of 10 μM according to NCI protocols published on the NCI website https://dtp.cancer.gov/discovery_development/nci-60/methodology.htm.

[2] = tested on: BT-549; details: Homo sapiens, BT-549, Breast Cancer, read-out: GI (%)
Experimental: as §1, §2

[3] = tested on: CCRF-CEM; details: Homo sapiens, Leukemias, read-out: GI (%)
Experimental: as §1, §2

[4] = tested on: COLO 205; details: Homo sapiens, COLO 205, Colon Cancer, read-out: GI (%)
Experimental: as §1, §2

[5] = tested on: EKVX; details: Homo sapiens, Non-Small Cell Lung Cancer, read-out: GI (%)
Experimental: as §1, §2

[6] = tested on: HCC-2998; details: Homo sapiens, HCC-2998, Colon Cancer, read-out: GI (%)
Experimental: as §1, §2

[7] = tested on: HCT-116; details: Homo sapiens, HCT-116, Colon Cancer, read-out: GI (%)
Experimental: as §1, §2

[8] = tested on: HL-60(TB); details: Homo sapiens, Leukemias, read-out: GI (%)
Experimental: as §1, §2

[9] = tested on: HOP-62; details: Homo sapiens, HOP-62, Non-Small Cell Lung Cancer, read-out: GI (%)
Experimental: as §1, §2

[10] = tested on: HOP-92; details: Homo sapiens, HOP-92, Non-Small Cell Lung Cancer, read-out: GI (%)
Experimental: as §1, §2

[11] = tested on: HS 578T; details: Homo sapiens, Breast Cancer, read-out: GI (%)
Experimental: as §1, §2

[12] = tested on: K-562; details: Homo sapiens, K562, K-562, Leukemias, read-out: GI (%)
Experimental: as §1, §2

[13] = tested on: KM12; details: Homo sapiens, KM12, Colon Cancer, read-out: GI (%)
Experimental: as §1, §2

[14] = tested on: MALME-3M; details: Homo sapiens, Melanoma, read-out: GI (%)
Experimental: as §1, §2

[15] = tested on: MCF7; details: Homo sapiens, MCF7, 10 μM; MCF7, Breast Cancer; read-out: GI (%)
Experimental: as §1, §2

[16] = tested on: MDA-MB-231/ATCC; details: Homo sapiens, Breast Cancer, read-out: GI (%)
Experimental: as §1, §2

[17] = tested on: MDA-MB-468; details: Homo sapiens, MDA-MB-468, Breast Cancer, read-out: GI (%)
Experimental: as §1, §2

[18] = tested on: NCI-H226; details: Homo sapiens, NCI-H226, Non-Small Cell Lung Cancer, read-out: GI (%)
Experimental: as §1, §2

[19] = tested on: NCI-H322M; details: Homo sapiens, Non-Small Cell Lung Cancer, read-out: GI (%)
Experimental: as §1, §2

[20] = tested on: NCI-H460; details: Homo sapiens, NCI-H460, Non-Small Cell Lung Cancer, read-out: GI (%)
Experimental: as §1, §2

[21] = tested on: NCI-H522; details: Homo sapiens, NCI-H522, Non-Small Cell Lung Cancer, read-out: GI (%)
Experimental: as §1, §2

[22] = tested on: OVCAR-3; details: Homo sapiens, OVCAR-3, 10 μM; OVCAR-3, Ovarian Cancer; read-out: GI (%)
Experimental: as §1, §2

[23] = tested on: OVCAR-5; details: Homo sapiens, OVCAR-5, Ovarian Cancer, read-out: GI (%)
Experimental: as §1, §2

[24] = tested on: OVCAR-8; details: Homo sapiens, OVCAR-8, Ovarian Cancer, read-out: GI (%)
Experimental: as §1, §2

[25] = tested on: PC-3; details: Homo sapiens, PC-3, Prostate Cancer, read-out: GI (%)
Experimental: as §1, §2

[26] = tested on: SF-295; details: Homo sapiens, SF-295, CNS Cancer, read-out: GI (%)
Experimental: as §1, §2

[27] = tested on: SK-MEL-2; details: Homo sapiens, SK-MEL-2, Melanoma, read-out: GI (%)
Experimental: as §1, §2

[28] = tested on: SK-MEL-5; details: Homo sapiens, SK-MEL-5, Melanoma, read-out: GI (%)
Experimental: as §1, §2

[29] = tested on: SN12C; details: Homo sapiens, Renal Cancer, read-out: GI (%)
Experimental: as §1, §2

[30] = tested on: SNB-19; details: Homo sapiens, SNB-19, CNS Cancer, read-out: GI (%)
Experimental: as §1, §2

[31] = tested on: SNB-75; details: Homo sapiens, SNB-75, CNS Cancer, read-out: GI (%)
Experimental: as §1, §2

[32] = tested on: SR; details: Homo sapiens, Leukemias, read-out: GI (%)
Experimental: as §1, §2

[33] = tested on: SW-620; details: Homo sapiens, SW-620, Colon Cancer, read-out: GI (%)
Experimental: as §1, §2

[34] = tested on: TK-10; details: Homo sapiens, TK-10, Renal Cancer, read-out: GI (%)
Experimental: as §1, §2

[35] = tested on: U251; details: Homo sapiens, U-251, U251, CNS Cancer, read-out: GI (%)
Experimental: as §1, §2

[36] = tested on: UACC-257; details: Homo sapiens, UACC-257, Melanoma, read-out: GI (%)
Experimental: as §1, §2

SMILES	inhibition at 10 µM [1] [%]	inhibition at 10 µM [2] [%]	inhibition at 10 µM [4] [%]	inhibition at 10 µM [5] [%]	inhibition at 10 µM [6] [%]	inhibition at 10 µM [7] [%]	inhibition at 10 µM [8] [%]	inhibition at 10 µM [9] [%]	inhibition at 10 µM [10] [%]	inhibition at 10 µM [11] [%]	inhibition at 10 µM [12] [%]	inhibition at 10 µM [13] [%]	inhibition at 10 µM [14] [%]	inhibition at 10 µM [15] [%]	inhibition at 10 µM [16] [%]	inhibition at 10 µM [17] [%]	inhibition at 10 µM [18] [%]	inhibition at 10 µM [19] [%]	inhibition at 10 µM [20] [%]	inhibition at 10 µM [21] [%]	other results
COc1ccc(COc2ccc(/C=C3/C(=O)Nc4cc(Cl)ccc43)cc2OC)cc1 [6n]	6.39	0.06	-11.1	13.1	-22.2	11.1	-13.9	4.49	-8.09	0.21	-2.8	0.42	2.77	24	5.7	7.72	6.67	3.24	20.7	11.5	inhibition at 10 µM [3]: 5.65%; inhibition at 10 µM [22]: -5.39%; inhibition at 10 µM [23]: 2.3%; inhibition at 10 µM [24]: 1.31%; inhibition at 10 µM [25]: 7.65%; inhibition at 10 µM [26]: -2.14%; inhibition at 10 µM [27]: -0.29%; inhibition at 10 µM [28]: 3.06%; inhibition at 10 µM [29]: 4.32%; inhibition at 10 µM [30]: 1.46%; inhibition at 10 µM [31]: -12.8%; inhibition at 10 µM [32]: 0.64%; inhibition at 10 µM [33]: 3.63%; inhibition at 10 µM [34]: -64.4%; inhibition at 10 µM [35]: -6.11%; inhibition at 10 µM [36]: -21.9%
COc1cc(C=C2C(=O)Nc3ccc(Cl)cc32)ccc1OCc1ccc(F)cc1 (mixture of isomers) [6h]	6.57	-1.21	6.56	11.5	-7.02	52.1	-2.34	7.95	11.7	5.91	11.4	-0.4	17.7	51	13.1	12.8	4.31	10.7	29.5	12.1	inhibition at 10 µM [3]: 30.5%; inhibition at 10 µM [23]: 3.31%; inhibition at 10 µM [24]: 8.78%; inhibition at 10 µM [25]: 15.8%; inhibition at 10 µM [26]: 2.31%; inhibition at 10 µM [27]: -7.21%; inhibition at 10 µM [28]: 10.8%; inhibition at 10 µM [29]: 11.1%; inhibition at 10 µM [30]: 8.68%; inhibition at 10 µM [31]: 22.3%; inhibition at 10 µM [32]: 58.1%; inhibition at 10 µM [33]: 40.3%; inhibition at 10 µM [34]: -29%; inhibition at 10 µM [35]: 49.3%; inhibition at 10 µM [36]: -1.98%
COc1cc(/C=C2/C(=O)Nc3cc(Cl)ccc32)ccc1OCc1ccc(F)cc1 [6m]	5.75	4.26	-10.2	23.5	3.17	7.12	-20.4	4.08	10.8	8.25	2.33	-2.27	7.28	42.9	7.87	7.02	8.79	1.78	1.02	7.08	inhibition at 10 µM [22]: -1.69%; inhibition at 10 µM [23]: 1.44%; inhibition at 10 µM [24]: 1.34%; inhibition at 10 µM [25]: 13%; inhibition at 10 µM [26]: 2.87%; inhibition at 10 µM [27]: 0.15%; inhibition at 10 µM [28]: 1.04%; inhibition at 10 µM [29]: 4.13%; inhibition at 10 µM [30]: -3.75%; inhibition at 10 µM [31]: -4.47%; inhibition at 10 µM [32]: 2.45%; inhibition at 10 µM [33]: 1.76%; inhibition at 10 µM [34]: -85.2%; inhibition at 10 µM [35]: -10.6%; inhibition at 10 µM [36]: -9.31%
